Patent US10245238B2, “Composition for oral intake” (THERAVALUES CORPORATION, priority 2014, dated 2019)

Experiment: Oral absorbability of various complexes: curcumin concentration in blood plasma after forced oral administration
Assay type: in vivo
Details: SD rats, curcumin dose 10 mg/kg
Protocol: (Oral Absorbability of Various Complexes)
For the test animal, 6-week old SD rats (male, body weight: 170 g to 260 g, Charles River Laboratories Japan, Inc.) were used.
In regard to the administration method, the various complexes (Examples 1 to 13) produced as described above were each added to water for injection in a predetermined amount, subsequently the mixture was made up to 20 mL so as to obtain a curcumin concentration of 1 mg/mL, the mixture was mixed using an ultrasonic generator, and the mixture was forcibly orally administered to test animals (n 3 or 5) that had been fasted for 12 hours or longer before administration, using a feeding needle, such that the curcumin dose would be 10 mg/kg (Administration Test Examples 1 to 13) or 50 mg/kg (Administration Test Example 14).
Meanwhile, the cases of administering curcumin base powder (Comparative Test Example 1); physical mixture obtained by simply physically mixing curcumin base powder and hydroxypropylmethyl cellulose powder or hydroxypropyl cellulose powder (curcumin:HPMC=1:3 or curcumin HPC=1:3) (Comparative Test Examples 2 and 3); or CR-031P powder (manufactured by Theravalues Corp.), which is a turmeric dye composition obtained by combining micronized curcuminoid with gum ghatti (Comparative Test Examples 4 and 5) was designated as controls.
For the measurement of the concentration of curcumin and/or an analog thereof in blood plasma, measurement was made by the following method, using heparinized blood plasma obtained by collecting about 0.5 mL of blood from the jugular vein of the test animals without anesthesia, after 30 minutes, 1 hour, and 2 hours from the initiation of administration.
100 μL of 0.1 M acetate buffer solution (pH 5.0) and 10 μL of β-glucuronidase solution (about 68,000 units/mL) were added to 20 μL of the collected blood plasma, and the mixture was maintained for 1 hour at 37° C. Subsequently, 10 μL of 50% (v/v) methanol including 20 ng/mL of mepronil, which was an internal standard liquid, and 0.5 mL of chloroform were added thereto, the mixture was stirred for 1 minute using a vortex mixer, and then the mixture was mixed for 15 minutes using an ultrasonic generator. An extraction-treated liquid thus prepared was separated into chloroform layer and an aqueous layer by centrifugation (13,000×g, for 5 minutes, at room temperature). This extraction treatment was repeated two times. Subsequently, the chloroform layer was collected, and the solvent was distilled off from this layer using a vacuum centrifugal concentrator to solid-dry the chloroform layer. 100 μL of 50% (v/v) methanol was added thereto, and then the mixture was centrifuged (13,000×g, for 5 minutes, at room temperature) to collect the supernatant.
2 μL of the supernatant produced as described above was subjected to an analysis using LC-MS/MS (manufactured by Shimadzu Corp.), and thereby the curcumin concentration in the blood plasma was measured. The conditions for the LC-MS/MS analysis were set such that the LC column was ATLANTIS T3 (2.1×150 mm, 3 μm, manufactured by Waters Corp.), the column temperature was 40° C., the flow rate was 0.2 mL/min, and the mobile phase included A: 0.1% aqueous solution of formic acid, and B: 0.1% formic acid/acetonitrile, and gradient elution was performed under the following conditions. […]

In the case of `COc1cc(/C=C/C(=O)/C=C(O)/C=C/c2ccc(O)c(OC)c2)ccc1O` [Curcumin base powder, curcumin], the AUC (0 to 2 h) is reported as 33.9 ng/mL · 0-2 h, the Cmax (male, rat, plasma) is reported as 49.8 ng/mL and the concentration at 0.5 h (male, rat, plasma, 0.5 h after administration) is reported as 7.8 ng/mL. For the same compound, the concentration at 1 h (male, rat, plasma, 1 h after administration) was 17.2 ng/mL and the concentration at 2 h (male, rat, plasma, 2 h after administration) was 34.2 ng/mL.
